Experimental data taken from patent publication US6177431A, “Tetrahydropyrimidine derivatives” (priority 1996, dated 2001).
Like-named read-outs stand apart in the source and are kept apart here. One block for each molecule: values may come before it.

Columns and labels:
[1] = system: caterpillars of the owlet moth (Spodoptera frugiperda); experiment: Spodoptera frugiperda test; format: in vivo; details: for destruction: after 3 days, active compound concentration 0.001%, cabbage leaves dipped; for mortality at 0.001 %: Spodoptera frugiperda, in Brassica oleracea, 72 h, read-out: destruction
[2] = system: mustard beetle larvae (Phaedon cochleariae); experiment: Phaedon larvae test; details: for mortality at 0.001 %: Phaedon cochleariae, in Brassica oleracea, 72 h, read-out: destruction
[3] = system: caterpillars of the diamondback moth (Plutella maculipennis); experiment: Plutella test; format: in vivo; details: for mortality at 0.01 %: Plutella, in Brassica oleracea, 72 h, read-out: destruction
Description: (§1) Solvent: 7 parts by weight of dimethylformamide

[4] = system: larvae of the green rice leaf hopper (Nephotettix cincticeps); experiment: Nephotettix test; format: in vivo; details: 144 h, read-out: destruction
Description: as §1

[5] = system: green peach aphids (Myzus persicae); experiment: Myzus test; format: in vivo; details: for mortality at 0.001 %: Myzus persicae, 24 h, read-out: destruction
Description: as §1

[6] = Lg. P, octanol/water partition coefficient determined by reversed phase HPLC; format: physicochemical
Description: *^) Lg. P = Logarithm of the partition coefficient P of the substance
between the solvents octanol and water, determined experimentally by […]

[7] = after 1 day, active compound concentration 0.001%, infested broad bean seedlings dipped
[8] = octanol/water, determined experimentally by reversed phase HPLC, read-out: Lg. P (logarithm of the partition coefficient P)

Structure (SMILES): CCC(C)(C)N1CC([N+](=O)[O-])=C2N(Cc3cnc(Cl)s3)CCN2C1 [(A), reference compound]
destruction [1]: no action
destruction ([2]; after 3 days, active compound concentration 0.001%, cabbage leaves dipped): no action

Structure (SMILES): COC(CN1CC([N+](=O)[O-])=C2N(Cc3cnc(Cl)s3)CCN2C1)OC [(B), reference compound]
mortality at 0.001 % [1]: 30%
mortality at 0.001 % [2]: 30%

Structure (SMILES): CCCCCCN1CC([N+](=O)[O-])=C2N(Cc3cnc(Cl)s3)CCN2C1 [(C), reference compound]
mortality at 0.001 % [1]: 30%
mortality at 0.001 % [2]: 40%

Structure (SMILES): CN1CC([N+](=O)[O-])=C2N(Cc3cnc(Cl)s3)CCN2C1 [(D), reference compound]
destruction [1]: no action

Structure (SMILES): CCOC(=O)CCN1CC([N+](=O)[O-])=C2N(Cc3ccc(Cl)nc3)CCN2C1 [(E), reference compound]
destruction ([3]; after 3 days, active compound concentration 0.01%, cabbage leaves dipped): no action
mortality at 0.0001 % [4]: 20%
mortality at 0.001 % ([5]; in Vicia faba): 10%
mortality at 0.001 % [2]: 20%

Structure (SMILES): O=[N+]([O-])C1=C2N(Cc3ccc(Cl)nc3)CCN2CN(Cc2ccc(Cl)cc2)C1 [(F), reference compound]
destruction [1]: no action
destruction [5, 7]: no action

Structure (SMILES): CCOC(=O)CN1CC([N+](=O)[O-])=C2N(Cc3ccc(Cl)nc3)CCN2C1 [(G), reference compound]
mortality at 0.001 % [1]: 30%

Structure (SMILES): COC(=O)CN1CC([N+](=O)[O-])=C2N(Cc3ccc(Cl)nc3)CCN2C1 [Example 1, 6,7-dihydro-1-(2-chloropyridin-5-yl-methyl)-6-methoxycarbonyl-methyl-8-nitro-(5H)-imidazolidino-[2,3-f]-pyrimidine]
mortality at 0.01 % [3]: 100%
mortality at 0.001 % ([5]; in Vicia faba): 99%
mortality at 0.001 % [2]: 100%

Structure (SMILES): O=C(CN1CC([N+](=O)[O-])=C2N(Cc3ccc(Cl)nc3)CCN2C1)Nc1ccccc1 [Example 3]
mortality at 0.001 % [2]: 100%

Structure (SMILES): O=C(O)CCCCCN1CC([N+](=O)[O-])=C2N(Cc3ccc(Cl)nc3)CCN2C1 [Example 4]
chromatographic logP ([6]; reversed phase hplc): 1.07
mortality at 0.001 % ([5]; in Vicia faba): 80%
mortality at 0.001 % [2]: 100%

Structure (SMILES): CCOC(=O)CCCN1CC([N+](=O)[O-])=C2N(Cc3ccc(Cl)nc3)CCN2C1 [Example 5]
chromatographic logP ([6]; reversed phase hplc): 0.94

Structure (SMILES): COC(=O)CN1CC([N+](=O)[O-])=C2N(Cc3cnc(Cl)s3)CCN2C1 [Example 6]
mortality at 0.01 % [3]: 100%
mortality at 0.0001 % [4]: 100%
mortality at 0.001 % ([5]; in Vicia faba): 90%

Structure (SMILES): O=C(CN1CC([N+](=O)[O-])=C2N(Cc3ccc(Cl)nc3)CCN2C1)OCc1ccc(Cl)nc1 [Example 7]
mortality at 0.0001 % [4]: 100%
mortality at 0.001 % [2]: 100%

Structure (SMILES): CC(C)OC(=O)CN1CC([N+](=O)[O-])=C2N(Cc3ccc(Cl)nc3)CCN2C1 [Example 9]
mortality at 0.01 % [3]: 100%
mortality at 0.001 % [1]: 100%
mortality at 0.0001 % [4]: 100%
mortality at 0.001 % [2]: 100%

Structure (SMILES): Cc1ccc(COC(=O)CN2CC([N+](=O)[O-])=C3N(Cc4ccc(Cl)nc4)CCN3C2)cc1 [Example 10]
mortality at 0.01 % [3]: 100%
mortality at 0.001 % [1]: 100%
mortality at 0.0001 % [4]: 100%
mortality at 0.001 % [2]: 100%

Structure (SMILES): CCCCCCCCOC(=O)CN1CC([N+](=O)[O-])=C2N(Cc3ccc(Cl)nc3)CCN2C1 [Example 11]
mortality at 0.01 % [3]: 100%
mortality at 0.001 % [1]: 100%
mortality at 0.001 % [2]: 100%

Structure (SMILES): O=C(CN1CC([N+](=O)[O-])=C2N(Cc3ccc(Cl)nc3)CCN2C1)OCc1ccc(Cl)c(Cl)c1 [Example 12]
mortality at 0.01 % [3]: 100%
mortality at 0.001 % [1]: 100%
mortality at 0.001 % [2]: 100%

Structure (SMILES): O=C(CN1CC([N+](=O)[O-])=C2N(Cc3ccc(Cl)nc3)CCN2C1)OCc1c(Cl)cccc1Cl [Example 13]
mortality at 0.01 % [3]: 100%

Structure (SMILES): O=C(CN1CC([N+](=O)[O-])=C2N(Cc3ccc(Cl)nc3)CCN2C1)OCc1ccc(Cl)cc1Cl [Example 14]
mortality at 0.01 % [3]: 100%
mortality at 0.001 % [1]: 100%
mortality at 0.0001 % [4]: 100%
mortality at 0.001 % [2]: 100%

Structure (SMILES): COC(=O)CCCN1CC([N+](=O)[O-])=C2N(Cc3ccc(Cl)nc3)CCN2C1 [Example 15]
chromatographic logP ([6]; reversed phase hplc): 1.12
mortality at 0.01 % [3]: 100%
mortality at 0.001 % [1]: 100%
mortality at 0.0001 % [4]: 100%
mortality at 0.001 % ([5]; in Vicia faba): 98%

chromatographic logP [6, 8]: 1.13
Structure (SMILES): COC(=O)CCCN1CC([N+](=O)[O-])=C2N(Cc3cnc(Cl)s3)CCN2C1 [Example 16]
mortality at 0.0001 % [4]: 100%
mortality at 0.001 % [5, 7]: 90%

chromatographic logP [6, 8]: 1.35
Structure (SMILES): CCOC(=O)CCCN1CC([N+](=O)[O-])=C2N(Cc3cnc(Cl)s3)CCN2C1 [Example 17]
mortality at 0.01 % [3]: 100%
mortality at 0.0001 % [4]: 100%

Structure (SMILES): COC(=O)CCCCN1CC([N+](=O)[O-])=C2N(Cc3ccc(Cl)nc3)CCN2C1 [Example 19]
mortality at 0.01 % [3]: 100%
mortality at 0.001 % [1]: 100%
mortality at 0.001 % ([5]; in Vicia faba): 95%
mortality at 0.001 % [2]: 100%

Structure (SMILES): COC(=O)CCCCCCCN1CC([N+](=O)[O-])=C2N(Cc3cnc(Cl)s3)CCN2C1 [Example 20]
mortality at 0.001 % [1]: 100%
mortality at 0.001 % [5, 7]: 100%
mortality at 0.001 % [2]: 100%

chromatographic logP [6, 8]: 1.73
Structure (SMILES): COC(=O)CCCCCCCN1CC([N+](=O)[O-])=C2N(Cc3ccc(Cl)nc3)CCN2C1 [Example 21]
mortality at 0.01 % [3]: 100%

Structure (SMILES): CC(C)OC(=O)CCN1CC([N+](=O)[O-])=C2N(Cc3ccc(Cl)nc3)CCN2C1 [Example 23]
chromatographic logP ([6]; reversed phase hplc): 1.51
mortality at 0.001 % [2]: 100%

chromatographic logP [6, 8]: 1.99
Structure (SMILES): CCOC(=O)C(Cc1ccccc1)N1CC([N+](=O)[O-])=C2N(Cc3ccc(Cl)nc3)CCN2C1 (stereo not shown) [Example 27]

Structure (SMILES): COC(=O)C(C(C)C)N1CC([N+](=O)[O-])=C2N(Cc3ccc(Cl)nc3)CCN2C1 (stereo not shown) [Example 28]
chromatographic logP ([6]; reversed phase hplc): 1.55
